Measured values reported in ChEMBL document CHEMBL1201862, “PubChem BioAssay data set” (2004).
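Method: 48-hour compound exposure of cells in 96-well plates, five concentrations, linear interpolation of endpoints. Here, GI50 denotes the concentration required for 50% inhibition of growth.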 Active and inactive are the calls of the source. Cut-off read from the data, not from the text of the source: active = GI50 up to about 1.1 µM and inactive = higher.

Legend:
Test in all cases: inhibition of tumour cell growth, NCI panel, 48 h
COLO 205 = tested on: COLO 205
IGROV-1 = tested on: IGROV-1
HOP-62 = tested on: HOP-62
OVCAR-4 = tested on: OVCAR-4
HCC 2998 = tested on: HCC 2998
CCRF-CEM = tested on: CCRF-CEM
SW-620 = tested on: SW-620
OVCAR-3 = tested on: OVCAR-3
M14 = tested on: M14
OVCAR-8 = tested on: OVCAR-8
HL-60 = tested on: HL-60
NCI-H522 = tested on: NCI-H522
SF-295 = tested on: SF-295
U-251 = tested on: U-251
CAKI-1 = tested on: CAKI-1
UO-31 = tested on: UO-31
LOX IMVI = tested on: LOX IMVI

Measured: GI50

O=c1cc(-c2ccccc2)oc2cc(OCCCCCCCCCCOc3ccc4c(=O)cc(-c5ccccc5)oc4c3)ccc12
inactive: COLO 205 > 100 µM | IGROV-1 > 100 µM | HOP-62 > 100 µM | OVCAR-4 > 100 µM | HCC 2998 > 100 µM | CCRF-CEM > 100 µM | SW-620 > 100 µM | OVCAR-3 > 100 µM | M14 > 100 µM | OVCAR-8 > 100 µM | HL-60 > 100 µM | NCI-H522 > 100 µM | SF-295 > 100 µM | U-251 > 100 µM | CAKI-1 > 100 µM

Cc1nc(N)nc(CCC(=O)Nc2cccc(C(F)(F)F)c2)c1-c1ccc(Cl)cc1
inactive: COLO 205 > 100 µM | IGROV-1 > 100 µM | HOP-62 > 100 µM | OVCAR-4 > 100 µM | HCC 2998 > 100 µM | CCRF-CEM > 100 µM | SW-620 > 100 µM | OVCAR-3 > 100 µM | M14 > 100 µM | UO-31 > 100 µM | OVCAR-8 > 100 µM | HL-60 > 100 µM | NCI-H522 > 100 µM | SF-295 > 100 µM | U-251 > 100 µM | CAKI-1 > 100 µM

N#[N+]c1ccccc1Sc1ccc(Cl)cc1
inactive: IGROV-1 82.8 µM | HOP-62 40.4 µM | OVCAR-4 > 100 µM | HCC 2998 > 100 µM | CCRF-CEM 89.9 µM | SW-620 > 100 µM | OVCAR-3 > 100 µM | M14 > 100 µM | UO-31 > 100 µM | OVCAR-8 > 100 µM | HL-60 94 µM | SF-295 > 100 µM | U-251 > 100 µM | CAKI-1 > 100 µM

CC1=CC2CCC1(C)C/C2=C(/C)OC=O (stereo not drawn)
inactive: COLO 205 > 100 µM | IGROV-1 > 100 µM | HOP-62 > 100 µM | OVCAR-4 > 100 µM | CCRF-CEM > 100 µM | SW-620 > 100 µM | OVCAR-3 > 100 µM | M14 > 100 µM | UO-31 > 100 µM | OVCAR-8 > 100 µM | HL-60 > 100 µM | NCI-H522 > 100 µM | LOX IMVI > 100 µM | SF-295 > 100 µM | U-251 > 100 µM | CAKI-1 > 100 µM

COC(=O)C12C3C4C1C1C2C3C41I (stereo not drawn)
inactive: COLO 205 > 100 µM | IGROV-1 > 100 µM | HOP-62 > 100 µM | OVCAR-4 > 100 µM | HCC 2998 > 100 µM | CCRF-CEM > 100 µM | SW-620 > 100 µM | OVCAR-3 > 100 µM | M14 > 100 µM | UO-31 > 100 µM | OVCAR-8 > 100 µM | HL-60 > 100 µM | SF-295 > 100 µM | U-251 > 100 µM | CAKI-1 > 100 µM

CC(=O)NC1=C(NCC(C)C)C(=O)c2ccccc2C1=O
inactive: COLO 205 > 100 µM | IGROV-1 43.5 µM | HOP-62 89.5 µM | OVCAR-4 69.2 µM | HCC 2998 > 100 µM | CCRF-CEM 7.18 µM | SW-620 16.5 µM | OVCAR-3 16.6 µM | M14 18.2 µM | UO-31 18 µM | OVCAR-8 22.1 µM | HL-60 2.76 µM | LOX IMVI 15.5 µM | SF-295 37.9 µM | U-251 40.2 µM | CAKI-1 16.7 µM

O=C(Nc1c(O)[nH]c(=S)[nH]c1=O)c1ccc2ccccc2n1
inactive: COLO 205 > 100 µM | IGROV-1 > 100 µM | HOP-62 > 100 µM | OVCAR-4 > 100 µM | CCRF-CEM > 100 µM | SW-620 > 100 µM | OVCAR-3 > 100 µM | M14 > 100 µM | UO-31 > 100 µM | OVCAR-8 > 100 µM | HL-60 > 100 µM | NCI-H522 > 100 µM | LOX IMVI > 100 µM | SF-295 > 100 µM | U-251 > 100 µM | CAKI-1 > 100 µM
